This passage reports IC50 results from patent publication US9468632B2, “Methods and compositions for targeting cancer stem cells” (The Regents of the University of Michigan, priority 2012, dated 2016).

Positions count from the first letter of the chain named.

What all share (type): biochemical
One experiment addresses T1, ALDH1A1 (S121) (Homo sapiens, UniProt P00352, N121S).
T1 sequence (P00352 1-501 N121S): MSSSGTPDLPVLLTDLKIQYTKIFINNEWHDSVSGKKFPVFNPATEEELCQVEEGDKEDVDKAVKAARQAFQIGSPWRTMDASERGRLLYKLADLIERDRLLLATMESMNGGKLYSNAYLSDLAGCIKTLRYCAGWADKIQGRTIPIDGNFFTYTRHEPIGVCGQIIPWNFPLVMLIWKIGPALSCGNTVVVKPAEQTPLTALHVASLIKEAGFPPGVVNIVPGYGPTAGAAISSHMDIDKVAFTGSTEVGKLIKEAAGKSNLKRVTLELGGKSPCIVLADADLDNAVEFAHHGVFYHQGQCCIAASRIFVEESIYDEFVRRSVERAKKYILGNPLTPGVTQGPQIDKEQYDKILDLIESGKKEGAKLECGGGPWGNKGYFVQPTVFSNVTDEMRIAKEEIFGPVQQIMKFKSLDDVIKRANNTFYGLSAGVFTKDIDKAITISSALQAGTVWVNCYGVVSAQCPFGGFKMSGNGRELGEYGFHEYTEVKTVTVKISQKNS
Description: In vitro enzymatic inhibition assay, ALDH1A1 (S121).

Another experiment has as its target T2, ALDH1A2 (Homo sapiens, UniProt O94788).
T2 sequence (O94788 1-518): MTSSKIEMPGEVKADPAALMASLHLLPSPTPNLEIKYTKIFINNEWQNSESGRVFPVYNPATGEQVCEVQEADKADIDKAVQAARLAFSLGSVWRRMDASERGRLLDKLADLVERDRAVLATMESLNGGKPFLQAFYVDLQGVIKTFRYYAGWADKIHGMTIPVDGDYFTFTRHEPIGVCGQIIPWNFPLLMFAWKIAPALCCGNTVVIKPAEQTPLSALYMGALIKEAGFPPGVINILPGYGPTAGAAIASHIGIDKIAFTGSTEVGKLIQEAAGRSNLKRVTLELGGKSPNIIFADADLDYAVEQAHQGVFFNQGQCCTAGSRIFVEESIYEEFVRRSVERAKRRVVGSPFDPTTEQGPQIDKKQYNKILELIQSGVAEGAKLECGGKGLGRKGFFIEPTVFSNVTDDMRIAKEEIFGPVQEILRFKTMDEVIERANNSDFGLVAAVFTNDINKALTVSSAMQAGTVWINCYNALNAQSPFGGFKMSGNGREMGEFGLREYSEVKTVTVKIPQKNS
Description: In vitro enzymatic inhibition assay, ALDH1A2.

The next experiment addresses T3, ALDH1A3 (Homo sapiens, UniProt P47895).
T3 sequence (P47895 1-512): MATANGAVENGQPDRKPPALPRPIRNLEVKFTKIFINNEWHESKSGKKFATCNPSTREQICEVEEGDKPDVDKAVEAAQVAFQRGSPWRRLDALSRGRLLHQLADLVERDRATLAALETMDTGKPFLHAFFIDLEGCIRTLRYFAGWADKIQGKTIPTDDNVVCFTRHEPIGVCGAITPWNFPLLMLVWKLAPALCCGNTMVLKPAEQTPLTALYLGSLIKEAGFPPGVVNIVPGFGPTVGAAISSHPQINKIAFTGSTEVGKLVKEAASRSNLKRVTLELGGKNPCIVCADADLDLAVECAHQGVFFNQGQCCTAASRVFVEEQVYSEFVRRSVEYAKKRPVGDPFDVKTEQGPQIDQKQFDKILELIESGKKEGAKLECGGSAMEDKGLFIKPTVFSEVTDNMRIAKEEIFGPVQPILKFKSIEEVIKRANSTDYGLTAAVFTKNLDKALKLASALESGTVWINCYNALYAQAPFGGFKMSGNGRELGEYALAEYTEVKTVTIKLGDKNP
Description: In vitro enzymatic inhibition assay, ALDH1A3.

A further experiment has as its target ALDH3A1 (Homo sapiens, UniProt P30838). Briefly: In vitro enzymatic inhibition assay, ALDH3A1.
The target of another experiment is T4, ALDH1A1 (WT) (Homo sapiens, UniProt P00352).
T4 sequence (P00352 1-501): T1 sequence (P00352 1-501 N121S) with S121N
Description: In vitro enzymatic inhibition assay, ALDH1A1 (WT). As to conditions: 2 min incub.

Chain of ALDH3A1 (P30838 whole entry): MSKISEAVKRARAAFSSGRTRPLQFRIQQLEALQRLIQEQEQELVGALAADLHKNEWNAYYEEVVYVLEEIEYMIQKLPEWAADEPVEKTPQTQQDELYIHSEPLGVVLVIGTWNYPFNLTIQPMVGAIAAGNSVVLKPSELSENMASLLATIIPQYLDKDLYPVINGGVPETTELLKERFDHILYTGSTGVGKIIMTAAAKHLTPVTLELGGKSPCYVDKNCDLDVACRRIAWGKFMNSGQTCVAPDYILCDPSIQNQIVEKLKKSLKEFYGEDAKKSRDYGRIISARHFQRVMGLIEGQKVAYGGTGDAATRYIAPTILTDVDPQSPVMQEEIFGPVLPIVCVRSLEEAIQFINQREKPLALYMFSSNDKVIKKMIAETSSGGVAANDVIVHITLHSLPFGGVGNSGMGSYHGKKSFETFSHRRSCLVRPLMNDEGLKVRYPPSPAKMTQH

As to DEAB [reference compound], the IC50 was 1490 ± 240 nM against ALDH1A1 (S121); > 20 µM at ALDH1A2; > 20 µM against ALDH1A3; > 20 µM on ALDH3A1; 519 ± 75 nM against ALDH1A1 (WT).

A word on the IC50: it is the midpoint of a concentration-inhibition curve. A higher IC50 goes with lower potency.
